Data reported in patent US11180483B2, “Substituted reverse pyrimidine Bmi-1 inhibitors” (PTC Therapeutics, Inc., priority 2012, dated 2021).

Tested on: Bmi-1
Experiment: Sandwich ELISA Assay (Bmi-1 ELISA) in HT-1080 cells
Assay type: cell-based
Summary of the method: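 HT-1080 cells exposed to compound in 0.5% final DMSO for 40-48 h at 37 °C, then lysed. Bmi-1 was quantified by sandwich ELISA: mouse monoclonal capture, rabbit anti-Bmi-1 detection, HRP anti-rabbit and TMB. Read at OD450 (OD570 reference) against a recombinant GST-Bmi-1 standard curve (0-8000 pg/mL).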

EC50	SMILES
100 to 3000 nM	Nc1nc(-c2c(C(F)(F)F)nc3ccc(F)cn23)nc(Nc2ccc(C(F)(F)F)cc2)c1F [Cpd 178, 5-fluoro-2-[6-fluoro-2-(trifluoromethyl)imidazo[1,2-a]pyridin-3-yl]-N-[4-(trifluoromethyl)phenyl]pyrimidine-4,6-diamine]
10 to 100 nM	Cc1nc2ncccc2n1-c1nc(N)c(F)c(Nc2ccc(OC(F)F)cc2)n1 [Cpd 138, N-[4-(difluoromethoxy)phenyl]-5-fluoro-2-(2-methyl-1H-imidazo[4,5-b]pyridin-1-yl)pyrimidine-4,6-diamine]
1 to 10 nM	CCc1nc2ccccc2n1-c1nc(N)c(F)c(Nc2ccc3c(c2)OCO3)n1 [Cpd 273, N-(1,3-benzodioxol-5-yl)-2-(2-ethyl-1H-benzimidazol-1-yl)-5-fluoropyrimidine-4,6-diamine]
100 to 3000 nM	Cc1c(N)nc(-n2c(C)nc3ccccc32)nc1Nc1ccc(C(F)(F)F)cc1 [Cpd 172, 5-methyl-2-(2-methyl-1H-benzimidazol-1-yl)-N-[4-(trifluoromethyl)phenyl]pyrimidine-4,6-diamine]
10 to 100 nM	Cc1ccc(Nc2ccnc(-c3c(C(F)(F)F)nc4ccccn34)n2)cc1Cl [Cpd 36, N-(3-chloro-4-methylphenyl)-2-[2-(trifluoromethyl)imidazo[1,2-a]pyridin-3-yl]pyrimidin-4-amine]
10 to 100 nM	Cc1nc2ccccc2n1-c1nc(N)c(F)c(Nc2ccc(C(F)(F)F)cc2)n1 [Cpd 95, 5-fluoro-2-(2-methyl-1H-benzimidazol-1-yl)-N-[4-(trifluoromethyl)phenyl]pyrimidine-4,6-diamine]
10 to 100 nM	Cc1nc2c(F)cccc2n1-c1nc(N)c(F)c(Nc2ccc(C(F)(F)F)cc2)n1 [Cpd 134, 5-fluoro-2-(4-fluoro-2-methyl-1H-benzimidazol-1-yl)-N-[4-(trifluoromethyl)phenyl]pyrimidine-4,6-diamine]
1 to 10 nM	COc1ccc(Nc2nc(-n3c(C)nc4cc(F)ccc43)nc(N)c2F)cc1 [Cpd 282, 5-fluoro-2-(5-fluoro-2-methyl-1H-benzimidazol-1-yl)-N-(4-methoxyphenyl)pyrimidine-4,6-diamine]
100 to 3000 nM	Cc1ccc(Nc2ccnc(-c3c(C)nc4ccc(C(F)(F)F)cn34)n2)cc1 [Cpd 20, N-(4-methylphenyl)-2-[2-methyl-6-(trifluoromethyl)imidazo[1,2-a]pyridin-3-yl]pyrimidin-4-amine]
100 to 3000 nM	Cc1nc2cc(C#N)ccc2n1-c1nc(N)c(F)c(Nc2ccc(C(F)(F)F)cc2)n1 [Cpd 229, 1-(4-amino-5-fluoro-6-{[4-(trifluoromethyl)phenyl]amino}pyrimidin-2-yl)-2-methyl-1H-benzimidazole-5-carbonitrile]
100 to 3000 nM	FC(F)(F)c1ccc(Nc2ccnc(-c3c(C(F)(F)F)nc4ccc(Cl)cn34)n2)cc1 [Cpd 13, 2-[6-chloro-2-(trifluoromethyl)imidazo[1,2-a]pyridin-3-yl]-N-[4-(trifluoromethyl)phenyl]pyrimidin-4-amine]
10 to 100 nM	CCc1nc2c(F)cc(F)cc2n1-c1nc(N)c(F)c(Nc2ccc(OC(F)F)cc2)n1 [Cpd 132, N-[4-(difluoromethoxy)phenyl]-2-(2-ethyl-4,6-difluoro-1H-benzimidazol-1-yl)-5-fluoropyrimidine-4,6-diamine]
10 to 100 nM	COc1ccc(Nc2ccnc(-c3c(C(F)(F)F)nc4ccc(F)cn34)n2)cc1 [Cpd 22, 2-[6-fluoro-2-(trifluoromethyl)imidazo[1,2-a]pyridin-3-yl]-N-(4-methoxyphenyl)pyrimidin-4-amine]
100 to 3000 nM	Cc1nc2cc(Cl)ccc2n1-c1nc(N)cc(Nc2ccc(OC(F)F)cc2)n1 [Cpd 99, 2-(5-chloro-2-methyl-1H-benzimidazol-1-yl)-N-[4-(difluoromethoxy)phenyl]pyrimidine-4,6-diamine]
100 to 3000 nM	Cc1nc2ccccc2n1-c1nccc(Nc2ccc(OC(F)F)cc2)n1 [Cpd 61, N-[4-(difluoromethoxy)phenyl]-2-(2-methyl-1H-benzimidazol-1-yl)pyrimidin-4-amine]
10 to 100 nM	CCc1nc2ccccc2n1-c1nc(N)c(F)c(Nc2ccc(OC(F)(F)F)cc2)n1 [Cpd 272, 2-(2-ethyl-1H-benzimidazol-1-yl)-5-fluoro-N-[4-(trifluoromethoxy)phenyl]pyrimidine-4,6-diamine]
10 to 100 nM	COc1ccc(Nc2nc(-n3c(C)nc4cc(F)c(F)cc43)nc(N)c2F)cc1 [Cpd 214, 2-(5,6-difluoro-2-methyl-1H-benzimidazol-1-yl)-5-fluoro-N-(4-methoxyphenyl)pyrimidine-4,6-diamine]
10 to 100 nM	CSc1ccc(Nc2cc(N)nc(-n3c(C)nc4ccccc43)n2)cc1 [Cpd 146, 2-(2-methyl-1H-benzimidazol-1-yl)-N-[4-(methylsulfanyl]phenyl]pyrimidine-4,6-diamine]
100 to 3000 nM	COc1ccc(Nc2ccnc(-c3c(C(F)(F)F)n(C)c4ccc(Cl)cc34)n2)cc1 [Cpd 23, 2-[5-chloro-1-methyl-2-(trifluoromethyl)-1H-indol-3-yl]-N-(4-methoxyphenyl)pyrimidin-4-amine]

EC50	SMILES
10 to 100 nM	Cc1nc2ccc(Cl)cc2n1-c1nc(N)c(F)c(Nc2ccc(OC(F)F)cc2)n1 [Cpd 161, 2-(6-chloro-2-methyl-1H-benzimidazol-1-yl)-N-[4-(difluoromethoxy)phenyl]-5-fluoropyrimidine-4,6-diamine]
100 to 3000 nM	CCc1nc2ccccc2n1-c1nc(N)c(Cl)c(Nc2ccc(OC(F)F)cc2)n1 [Cpd 168, 5-chloro-N-[4-(difluoromethoxy)phenyl]-2-(2-ethyl-1H-benzimidazol-1-yl)pyrimidine-4,6-diamine]
100 to 3000 nM	Cc1nc2ccc(C#N)cc2n1-c1nc(N)c(F)c(Nc2ccc(OC(F)F)cc2)n1 [Cpd 223, 1-(4-amino-6-{[4-(difluoromethoxy)phenyl]amino}-5-fluoropyrimidin-2-yl)-2-methyl-1H-benzimidazole-6-carbonitrile]
10 to 100 nM	Cc1nc2ccccc2n1-c1nc(N)c(F)c(Nc2ccc(Cl)c(F)c2)n1 [Cpd 261, N-(4-chloro-3-fluorophenyl)-5-fluoro-2-(2-methyl-1H-benzimidazol-1-yl)pyrimidine-4,6-diamine]
100 to 3000 nM	Cc1nc2cc(Cl)ccc2n1-c1nc(N)c(F)c(Nc2ccc(OC(F)F)cc2)n1 [Cpd 159, 2-(5-chloro-2-methyl-1H-benzimidazol-1-yl)-N-[4-(difluoromethoxy)phenyl]-5-fluoropyrimidine-4,6-diamine]
10 to 100 nM	Cc1nc2c(F)cc(F)cc2n1-c1nc(N)c(F)c(Nc2ccc(Cl)cc2)n1 [Cpd 237, N-(4-chlorophenyl)-2-(4,6-difluoro-2-methyl-1H-benzimidazol-1-yl)-5-fluoropyrimidine-4,6-diamine]
100 to 3000 nM	COc1cccc(Nc2nc(-n3c(C)nc4ccc(F)cc43)nc(N)c2F)c1 [Cpd 189, 5-fluoro-2-(6-fluoro-2-methyl-1H-benzimidazol-1-yl)-N-(3-methoxyphenyl)pyrimidine-4,6-diamine]
100 to 3000 nM	CC1(c2nc3ccccc3n2-c2nc(N)cc(Nc3ccc(C(F)(F)F)cc3)n2)CC1 [Cpd 147, 2-[2-(1-methylcyclopropyl)-1H-benzimidazol-1-yl]-N-[4-(trifluoromethyl]phenyl]pyrimidine-4,6-diamine]
100 to 3000 nM	FC(F)(F)c1ccc(Nc2ccnc(-c3c(C(F)(F)F)nc4cnccn34)n2)cc1 [Cpd 46, 2-[2-(trifluoromethyl)imidazo[1,2-a]pyrazin-3-yl]-N-[4-(trifluoromethyl)phenyl]pyrimidin-4-amine]
10 to 100 nM	Cc1nc2cc(F)c(F)cc2n1-c1nc(N)c(F)c(Nc2ccc(OC(F)F)c(F)c2)n1 [Cpd 126, N-[4-(difluoromethoxy)-3-fluorophenyl]-2-(5,6-difluoro-2-methyl-1H-benzimidazol-1-yl)-5-fluoropyrimidine-4,6-diamine]
10 to 100 nM	Cc1nc2ccc(F)cc2n1-c1nc(N)c(F)c(Nc2ccc(C(F)(F)F)nc2)n1 [Cpd 183, 5-fluoro-2-(6-fluoro-2-methyl-1H-benzimidazol-1-yl)-N-[6-(trifluoromethyl)pyridin-3-yl]pyrimidine-4,6-diamine]
10 to 100 nM	Cc1ccc(Nc2nc(-n3c(C)nc4ccc([N+](=O)[O-])cc43)nc(N)c2F)cc1 [Cpd 232, 5-fluoro-2-(2-methyl-6-nitro-1H-benzimidazol-1-yl)-N-(4-methylphenyl)pyrimidine-4,6-diamine]
10 to 100 nM	Cc1nc2ccc(F)cc2n1-c1nc(N)c(F)c(Nc2ccc(Cl)c(F)c2)n1 [Cpd 262, N-(4-chloro-3-fluorophenyl)-5-fluoro-2-(6-fluoro-2-methyl-1H-benzimidazol-1-yl)pyrimidine-4,6-diamine]
1 to 10 nM	Cc1ccc(Nc2cc(N)nc(-n3c(C)nc4ccccc43)n2)cc1 [Cpd 196, 2-(2-methyl-1H-benzimidazol-1-yl)-N-(4-methylphenyl)pyrimidine-4,6-diamine]
10 to 100 nM	CCc1nc2cc(F)ccc2n1-c1nc(N)c(F)c(Nc2ccc(OC(F)F)cc2)n1 [Cpd 163, N-[4-(difluoromethoxy)phenyl]-2-(2-ethyl-5-fluoro-1H-benzimidazol-1-yl)-5-fluoropyrimidine-4,6-diamine]
100 to 3000 nM	Cc1nc2ccc([N+](=O)[O-])cc2n1-c1nc(N)c(F)c(Nc2ccc(OC(F)F)cc2)n1 [Cpd 231, N-[4-(difluoromethoxy)phenyl]-5-fluoro-2-(2-methyl-6-nitro-1H-benzimidazol-1-yl)pyrimidine-4,6-diamine]
10 to 100 nM	Cc1nc2c(F)cccc2n1-c1nc(N)c(F)c(Nc2ccc(OC(F)F)cc2)n1 [Cpd 135, N-[4-(difluoromethoxy)phenyl]-5-fluoro-2-(4-fluoro-2-methyl-1H-benzimidazol-1-yl)pyrimidine-4,6-diamine]
100 to 3000 nM	Cc1ccc(Nc2ccnc(-c3c(-c4ccccc4)nc4ccc(F)cn34)n2)cc1 [Cpd 27, 2-(6-fluoro-2-phenylimidazo[1,2-a]pyridin-3-yl)-N-(4-methylphenyl)pyrimidin-4-amine]
100 to 3000 nM	Cc1nc2ccccn2c1-c1nccc(Nc2ccc(Cl)cc2)n1 [Cpd 5, N-(4-chlorophenyl)-2-(2-methylimidazo[1,2-a]pyridin-3-yl)pyrimidin-4-amine]
